PubChem BioAssay AID248 (DTP/NCI, 2004)
Several values for one entry are separate records, joined by “and”; a condition that tells them apart may be missing. Equal values may be shown once. Toxic doses and inconclusive results are not listed. Rule as the data show it: active = T/C of 150% or more; inactive = T/C below 125%.

System: L1210 leukemia ip in BDF1 mice, survival T/C
Assay: NCI In Vivo Anticancer Drug Screen. Data for tumor model L1210 Leukemia (intraperitoneal) in B6D2F1 (BDF1) mice
Conditions: endpoint: mean survival time, higher = longer survival
Summary of the method: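 Read-out is survival time, reported as the treated-group measurement over the vehicle-control measurement.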

[1] = dose: 50.0 mg/kg/injection, schedule: Q01DX009 (ip), vehicle: saline
[2] = dose: 100.0 mg/kg/injection, schedule: Q01DX009 (ip), vehicle: saline
[3] = dose: 100.0 mg/kg/injection, schedule: Q04DX003 (ip), vehicle: saline
[4] = dose: 200.0 mg/kg/injection, schedule: Q04DX003 (ip), vehicle: saline
[5] = dose: 400.0 mg/kg/injection, schedule: Q04DX003 (ip), vehicle: saline
[6] = dose: 100.0 mg/kg/injection, schedule: Q01DX001 (ip), vehicle: saline with Tween-80
[7] = dose: 200.0 mg/kg/injection, schedule: Q01DX001 (ip), vehicle: saline with Tween-80
[8] = dose: 400.0 mg/kg/injection, schedule: Q01DX001 (ip), vehicle: saline with Tween-80
[9] = dose: 100.0 mg/kg/injection, schedule: Q04DX002 (ip), vehicle: saline with Tween-80
[10] = dose: 100.0 mg/kg/injection, schedule: Q01DX009 (ip), vehicle: Klucel (hydroxypropylcellulose) (HPC)
[11] = dose: 200.0 mg/kg/injection, schedule: Q01DX009 (ip), vehicle: Klucel (hydroxypropylcellulose) (HPC)
[12] = dose: 400.0 mg/kg/injection, schedule: Q01DX009 (ip), vehicle: Klucel (hydroxypropylcellulose) (HPC)
[13] = dose: 25.0 mg/kg/injection, schedule: Q04DX003 (ip), vehicle: saline
[14] = dose: 50.0 mg/kg/injection, schedule: Q04DX003 (ip), vehicle: saline
[15] = dose: 100.0 mg/kg/injection, schedule: Q04DX003 (ip), vehicle: Klucel (hydroxypropylcellulose) (HPC)
[16] = dose: 200.0 mg/kg/injection, schedule: Q04DX003 (ip), vehicle: Klucel (hydroxypropylcellulose) (HPC)
[17] = dose: 400.0 mg/kg/injection, schedule: Q04DX003 (ip), vehicle: Klucel (hydroxypropylcellulose) (HPC)
[18] = dose: 100.0 mg/kg/injection, schedule: Q01DX001 (ip), vehicle: carboxymethylcellulose (CMC)
[19] = dose: 200.0 mg/kg/injection, schedule: Q01DX001 (ip), vehicle: carboxymethylcellulose (CMC)
[20] = dose: 400.0 mg/kg/injection, schedule: Q01DX001 (ip), vehicle: carboxymethylcellulose (CMC)
[21] = dose: 100.0 mg/kg/injection, schedule: Q01DX001 (ip), vehicle: saline
[22] = dose: 100.0 mg/kg/injection, schedule: Q01DX001 (ip), vehicle: Klucel (hydroxypropylcellulose) (HPC)
[23] = dose: 200.0 mg/kg/injection, schedule: Q01DX001 (ip), vehicle: Klucel (hydroxypropylcellulose) (HPC)
[24] = dose: 400.0 mg/kg/injection, schedule: Q01DX001 (ip), vehicle: Klucel (hydroxypropylcellulose) (HPC)
[25] = dose: 25.0 mg/kg/injection, schedule: Q01DX009 (ip), vehicle: saline

Measured: T/C

CN(C)NC(=O)C(c1ccccc1)c1ccccc1
inactive: dose: 25.0 mg/kg/injection, schedule: Q04DX003 (ip), vehicle: saline with Tween-80 100 % of control | dose: 50.0 mg/kg/injection, schedule: Q04DX003 (ip), vehicle: saline with Tween-80 97 % of control | dose: 100.0 mg/kg/injection, schedule: Q04DX003 (ip), vehicle: saline with Tween-80 92 % of control and 97 % of control

CCOC1=CC(=O)CCC1
inactive: [1] 98 % of control | [2] 94 % of control | [3] 98 % of control | dose: 200.0 mg/kg/injection, schedule: Q01DX009 (ip), vehicle: saline 100 % of control | [4] 110 % of control | [5] 101 % of control

Cc1cccc[n+]1Cc1ccccc1
inactive: dose: 9.38 mg/kg/injection, schedule: Q01DX001 (ip), vehicle: saline 100 % of control | dose: 18.75 mg/kg/injection, schedule: Q01DX001 (ip), vehicle: saline 97 % of control | dose: 37.5 mg/kg/injection, schedule: Q01DX001 (ip), vehicle: saline 101 % of control

CCCCC1C2CCCCC2CC2CCCCC21 (centres undefined)
inactive: [6] 98 % of control | [7] 101 % of control | [8] 98 % of control

c1c[nH]c(Cc2ccc3ccccc3c2)c1
inactive: dose: 100.0 mg/kg/injection, schedule: Q01DX009 (ip), vehicle: other 110 % of control | dose: 100.0 mg/kg/injection, schedule: Q04DX003 (ip), vehicle: other 102 % of control | dose: 200.0 mg/kg/injection, schedule: Q01DX009 (ip), vehicle: other 97 % of control | dose: 200.0 mg/kg/injection, schedule: Q04DX003 (ip), vehicle: other 101 % of control | dose: 400.0 mg/kg/injection, schedule: Q01DX009 (ip), vehicle: other 110 % of control | dose: 400.0 mg/kg/injection, schedule: Q04DX003 (ip), vehicle: other 102 % of control

CCOC(=O)c1nc2c(OC)nn(O)cc-2c1Br
inactive: dose: 25.0 mg/kg/injection, schedule: Q04DX002 (ip), vehicle: saline with Tween-80 92 % of control | dose: 50.0 mg/kg/injection, schedule: Q04DX002 (ip), vehicle: saline with Tween-80 89 % of control | [9] 96 % of control

CCOC(=O)C(C(=O)OCC)C(CC(=O)c1ccccc1)c1ccccc1 (centres undefined)
inactive: [10] 98 % of control | [11] 93 % of control | [12] 94 % of control

C1=CCC2CSCC2C1 (centres undefined)
inactive: dose: 75.0 mg/kg/injection, schedule: Q01DX009 (ip), vehicle: saline sonified 98 % of control | dose: 150.0 mg/kg/injection, schedule: Q01DX009 (ip), vehicle: saline sonified 98 % of control

CCN(CC)CCCC(C)Nc1cc(N)nc2nccnc12 (centres undefined)
inactive: [13] 102 % of control | [14] 111 % of control | [3] 107 % of control

CCOC(=O)c1cc2c([nH]1)CCCC2
inactive: [9] 100 % of control | dose: 200.0 mg/kg/injection, schedule: Q04DX002 (ip), vehicle: saline with Tween-80 94 % of control | dose: 400.0 mg/kg/injection, schedule: Q04DX002 (ip), vehicle: saline with Tween-80 97 % of control

CC(=O)OC1CCC2(C)C(=CCC3C4C/C(=C\N5CCCC5)C(=O)C4(C)CCC32)C1 (centres undefined)
inactive: [6] 93 % of control | [7] 90 % of control | [8] 90 % of control

CCOC(=O)c1[nH]c2c(c1CC(CC)[N+](=O)[O-])CCCC2 (centres undefined)
inactive: [10] 96 % of control | [15] 93 % of control | [11] 98 % of control | [16] 93 % of control | [12] 101 % of control | [17] 95 % of control

O=c1[nH][nH]c(=O)c2c1nc(SCc1ccccc1Br)n2Cc1ccccc1
inactive: [18] 95 % of control | [19] 97 % of control | [20] 97 % of control

CC(Cl)(Cl)[N+](=O)[O-]
inactive: dose: 100.0 mg/kg/injection, schedule: Q01DX009 (ip), vehicle: saline with Tween-80 104 % of control | dose: 200.0 mg/kg/injection, schedule: Q01DX009 (ip), vehicle: saline with Tween-80 104 % of control

Cc1ccc2nc(-c3cc(Br)ccc3O)c(-c3cc(Br)ccc3O)nc2c1
inactive: [10] 97 % of control | [15] 96 % of control | [11] 100 % of control | [16] 101 % of control | [12] 89 % of control | [17] 101 % of control

CCOC(=O)c1c(C)[nH]c2ccc(O)cc12
inactive: [10] 92 % of control | [15] 95 % of control | [11] 104 % of control | [16] 100 % of control | [12] 114 % of control | [17] 100 % of control

Cc1ccc([N+](=O)[O-])cc1O
inactive: [13] 98 % of control | [14] 102 % of control | [21] 97 % of control | [3] 97 % of control

O=C(OC1OC(COCc2ccccc2)C(OCc2ccccc2)C1OCc1ccccc1)c1ccccc1 (centres undefined)
inactive: [22] 92 % of control and 98 % of control | [23] 100 % of control and 98 % of control | [24] 94 % of control and 113 % of control

CC(C)(O)CNC(=O)c1cccc([N+](=O)[O-])c1
inactive: [15] 94 % of control | [16] 88 % of control

Cc1cc(C)c(F)c(Br)c1N
inactive: dose: 50.0 mg/kg/injection, schedule: Q04DX003 (ip), vehicle: Klucel (hydroxypropylcellulose) (HPC) 95 % of control | [22] 97 % of control | [15] 95 % of control | [23] 101 % of control | [16] 106 % of control | [24] 100 % of control

CC(=O)Oc1cc(OC(C)=O)c2ccccc2c1OC(C)=O
inactive: dose: 1.56 mg/kg/injection, schedule: Q04DX003 (ip), vehicle: saline 102 % of control | dose: 3.12 mg/kg/injection, schedule: Q04DX003 (ip), vehicle: saline 106 % of control | dose: 6.25 mg/kg/injection, schedule: Q04DX003 (ip), vehicle: saline 102 % of control | dose: 12.5 mg/kg/injection, schedule: Q01DX001 (ip), vehicle: saline 103 % of control | dose: 25.0 mg/kg/injection, schedule: Q01DX001 (ip), vehicle: saline 97 % of control | dose: 50.0 mg/kg/injection, schedule: Q01DX001 (ip), vehicle: saline 100 % of control

CC(C)C1C(=O)N2CCCC2C2(O)OC(NC(=O)C3C=C4c5cccc6[nH]cc(c56)CC4N(C)C3)(C(C)C)C(=O)N12 (centres undefined)
inactive: [25] 94 % of control | [1] 91 % of control | [14] 106 % of control | [2] 94 % of control | [3] 101 % of control | [4] 108 % of control | [5] 95 % of control

COc1ccc(C=Nc2cc(Cl)ccc2O)cc1
inactive: [18] 89 % of control | [19] 95 % of control | [20] 95 % of control

CCN(CC)CCC(CNC(=O)CN(CC)CC)(c1cccc2ccccc12)C(C)C (centres undefined)
inactive: dose: 12.5 mg/kg/injection, schedule: Q01DX009 (ip), vehicle: saline 98 % of control | dose: 12.5 mg/kg/injection, schedule: Q04DX003 (ip), vehicle: saline 94 % of control | [25] 93 % of control | [13] 110 % of control | [1] 90 % of control | [14] 104 % of control

O=c1[nH]nnc2c1cnn2C1OC(CO)C(O)C1O (centres undefined)
inactive: [21] 100 % of control | dose: 200.0 mg/kg/injection, schedule: Q01DX001 (ip), vehicle: saline 106 % of control | dose: 400.0 mg/kg/injection, schedule: Q01DX001 (ip), vehicle: saline 97 % of control

COc1ccc(O)c2c(C(=O)c3ccccc3)c[nH]c12
inactive: dose: 25.0 mg/kg/injection, schedule: Q04DX002 (ip), vehicle: Klucel (hydroxypropylcellulose) (HPC) 87 % of control | dose: 50.0 mg/kg/injection, schedule: Q04DX002 (ip), vehicle: Klucel (hydroxypropylcellulose) (HPC) 95 % of control | dose: 100.0 mg/kg/injection, schedule: Q04DX002 (ip), vehicle: Klucel (hydroxypropylcellulose) (HPC) 95 % of control
